Assay results as given in patent US20110229411A1, “USE OF P2X7 PATHWAY FOR ASSESSING THE SENSITIVITY OF A SUBJECT TO A CANCER TREATMENT” (INSTITUT GUSTAVE ROUSSY, priority 2008, published 2011).

Tests used:
[1] = tested on: CT26 cells; test: Anti-cancer vaccination with dying CT26 cells and rechallenge with live tumor cells; format: in vivo, mice; conditions: doxorubicin-treated CT26, rechallenge with live cells seven days later
Procedure: FIG. 3: Identification of AT P release as a limiting factor of anti-cancer vaccination by dying CT 26 cells. FIG. 3a-b Idem as in FIGS. 1a and b, but using the mouse colon cancer CT26 exposed to doxorubicin. Data of one representative experiment out of three are depicted. FIG. 3. c-d. […] Mice were immunized with PBS or dying CT26 tumor cells. Dying CT26 were first treated with doxorubicin for 24 hours and were then incubated with antimycin A/deoxyglucose (A/D) for 20 min. Cells were washed after A/D exposure and before subcutaneous inoculation (c). Alternatively, dying CT26 were inoculated alone or together with oxiATP (d). Seven days later, mice (15 per group in a total of 3 distinct experiments) were inoculated with live syngeneic tumor cells and tumor growth was monitored. * p<0.05.
Anti cancer vaccination was assessed using a previously described setting (Casares et al., 2005; Obeid et al., 2007). CT26 cells were cultured with either PBS or 20 μM doxorubicin, and MCA205 with either PBS or 1 μM mitoxantrone for 24 h. All these treatments led to ˜50% of Annexin V^+ DAPI^+ cells, as assessed by FACS analysis at 24 hours. After careful washes, cells were resuspended in sterile PBS. […] Tumor growth was then monitored weekly.

[2] = tested on: T cell priming for IFNγ production; test: Priming assay: dying EG7 cells injected into the footpad, IFNγ secretion of restimulated popliteal lymph node cells; format: in vivo, mice
Procedure: 1.10^6 CT26, EG7, or B16F10 cells were either left untreated or treated with doxorubicin (20 μM) or oxaliplatin (5 μg/ml) for 24 h. Cells were then injected into the footpad of syngenic mice. In some experiments, 20 or 100 μg of IL-1Ra (Anakinra) or 250 ng of recombinant murine IL-1β (or 250 ng of IL-6 or 50 ng of IL-12) was injected along with dying tumor cells into the footpad of mice. Alternatively, DC were cocultured with EG7 cells for 2 hours, followed by the purification of CD11c^+ cells with anti-CD11c mAb coupled to magnetic beads (Miltenyi Biotec, Paris, France) and injection of these purified DC into the footpad. Five days later, gangliocytes from popliteal lymph nodes were harvested, seeded in 96 U-well plates (3.10^5 cells per well), and restimulated with 1 mg/ml OVA protein. Restimulation with MCA205 or CT26 cells was performed using 3×10^4 tumor cells killed by 5 min heating at 42° C. followed by 1 cycle of freezing/thawing in liquid nitrogen. For B16F10, restimulation was achieved using gp100 peptide as previously described (Overwijk et al., 1998). As a positive control of T cell priming, mice were injected with OVA protein (1 mg) (or gp100 for B16F10) and the association of CpG (10 μg) and Poly I:C (5 μg). For CT26 priming experiments, cell lysate plus LPS (250 ng) was used as a positive control. Supernatants were harvested 72 hours later, and IFNγ secretion was assessed by ELISA. Alternatively, cells were stimulated with PMA (10 ng/ml) and ionomycin (1 μg/ml) for 1 h, followed by the addition of brefeldin A (10 μg/ml for 6 h at 37° C.) (Apetoh et al., 2007), surface staining with Abs specific for CD3, CD4 or CD8, fixation and permeabilization (Cytofix/cytoperm kit) and then labeled with antibodies specific for IFNγ. Immunofluorescence was analyzed on a LSRII flow cytometer (BD Biosciences) with FACSDiva software.

[3] = tested on: CT26 tumors; test: Chemotherapy of CT26 tumors established in mice; format: in vivo; conditions: doxorubicin i.t.; 100 μg on day 0 and day 2, WT mice
Procedure: FIG. 17. The anti-cancer activity of oxaliplatin depends on P2X7 and the NALP3 inflammasome. FIG. 17a,b,c. Therapeutic efficacy of oxaliplatin on established tumors depends on the integrity of the immune system on the P2X7/NALP3/casp-1 axis. EL4 thymoma tumors were established in syngenic mice bearing the indicated genotypes (a-c) or injected with anti-CD8 antibody (a). When the tumor reached 70-90mm^2 in size, mice were either left untreated or were treated with oxaliplatin. Each treatment group included 5-6 mice (X±SEM), and each experiment was repeated three times with similar results. * p<0.05. d. Caspase 1 is required for the immune response promoted by oxaliplatin chemotherapy. EG7 tumors established in the thigh were treated with one systemic injection of oxaliplatin. Inguinal lymph node cells were harvested 5 days later, and the gangliocytes were restimulated in vitro. IFNγ secretion was assessed by ELISA. Results (means of triplicates ±SEM, n=3) are representative of one typical experiment out of three. ^*P<0.01. FIG. 17d. […] The time to metastatic progression was analyzed in 225 women with non-metastatic breast cancer who received adjuvant chemotherapy with anthracylines.
Wild type or loss-of-function C57BL/6 mice were injected s.c. with 10^6 EL4 cells into the right flank. […] The tumor surface was monitored using a caliper. […]

[4] = tested on: T cell priming for IFNγ production; test: Priming assay with dying CT26 cells, restimulation with CT26 or MCA205 tumor lysate, IFNγ production; format: in vivo; conditions: IL-1Ra 100 μg co-inoculated, WT mice
Procedure: FIG. 14: The immunogenicity of cell death requires active IL-1β. Mice were immunized with PBS or dying CT26 tumor cells treated with doxorubicin or freeze thawing and LPS. Dying CT26 were co-inoculated together with IL-1Ra (100 μg) into the […] of WT mice. Five days later, mice (n=5 mice/group) were sacrificed to harvest popliteal lymph nodes for in vitro restimulation with CT26 or MCA205 tumor lysate and assessment of IFNγ production. *p<0.05.
1.10^6 CT26, EG7, or B16F10 cells were either left untreated or treated with doxorubicin (20 μM) or oxaliplatin (5 μg/ml) for 24 h. Cells were then injected into the footpad of syngenic mice. In some experiments, 20 or 100 μg of IL-1Ra (Anakinra) or 250 ng of recombinant murine IL-1β (or 250 ng of IL-6 or 50 ng of IL-12) was injected along with dying tumor cells into the footpad of mice. Alternatively, DC were cocultured with EG7 cells for 2 hours, followed by the purification of CD11c^+ cells with anti-CD11c mAb coupled to magnetic beads (Miltenyi Biotec, Paris, France) and injection of these purified DC into the footpad. […] Supernatants were harvested 72 hours later, and IFNγ secretion was assessed by ELISA. […] Immunofluorescence was analyzed on a LSRII flow cytometer (BD Biosciences) with FACSDiva software.

[5] = tested on: EL4 thymoma tumors; test: Chemotherapy of EL4 tumors established in mice; format: in vivo; conditions: co-treatment, data not shown
Procedure: FIG. 17. The anti-cancer activity of oxaliplatin depends on P2X7 and the NALP3 inflammasome. FIG. 17a,b,c. Therapeutic efficacy of oxaliplatin on established tumors depends on the integrity of the immune system on the P2X7/NALP3/casp-1 axis. EL4 thymoma tumors were established in syngenic mice bearing the indicated genotypes (a-c) or injected with anti-CD8 antibody (a). When the tumor reached 70-90mm^2 in size, mice were either left untreated or were treated with oxaliplatin. Each treatment group included 5-6 mice (X±SEM), and each experiment was repeated three times with similar results. * p<0.05. d. Caspase 1 is required for the immune response promoted by oxaliplatin chemotherapy. EG7 tumors established in the thigh were treated with one systemic injection of oxaliplatin. Inguinal lymph node cells were harvested 5 days later, and the gangliocytes were restimulated in vitro. IFNγ secretion was assessed by ELISA. Results (means of triplicates ±SEM, n=3) are representative of one typical experiment out of three. ^*P<0.01. FIG. 17d. The efficacy of anthracyclines against established colon cancer is dependent on IL-1β. CT26 tumors established for 10 days in WT mice were treated with one local injection of doxorubicin in the absence or presence of neutralizing anti-IL-1β Ab (n=10/group, *p<0.05). FIG. 17e. A single-nucleotide polymorphism (SNP) in P2X7 (rs3751143) affects the long-term efficacy of conventional anti-cancer therapy in breast cancer patients. Comparative Kaplan-Meier estimates of time to metastasis in two groups of patients bearing the normal (Glu496Glu) or loss-of-function (Glu496Ala) P2X7 alleles. The time to metastatic progression was analyzed in 225 women with non-metastatic breast cancer who received adjuvant chemotherapy with anthracylines.
Wild type or loss-of-function C57BL/6 mice were injected s.c. with 10^6 EL4 cells into the right flank. Alternatively, wild-type BALB/c mice were injected with 5.10^5 CT26 cells into the right flank. Mice were then randomly assigned to treatment groups of 4-6 mice each. The tumor surface was monitored using a caliper. When tumor size reached 70-90 mm^2 for EL4 (9-12 days post-injection) or 60-80 mm^2 for CT26 (8-10 days post-injection), mice received chemotherapy (Apetoh et al., 2007). Mice bearing EL4 tumors were injected with oxaliplatin (5 mg/kg i.p), while mice bearing CT26 tumors were injected with doxorubicin (50 μl, 4 mM i.t). In some experiments, CT26 tumor-bearing mice received two injections (on day 0 and day 2 after the commencement of chemotherapeutic treatment) of IL-1Ra (McIntyre et al., 1991) (100 μg), anti-IL-1 antibody (100 μg) or hamster serum as a control.

[6] = tested on: CD3+ CD8+ T cells; test: In vitro stimulation of CD8+ T-cells with anti-CD3 and anti-CD28 mAb plus cytokines; format: cell-based, mouse; conditions: CD3 plus CD28 cross-linking; 10 ng/ml IL-12p70, 100 ng/ml IL-1β, IL-6, TNFα
Procedure: (§1) FIG. 15. IL-1β-dependent CTL priming by dying tumor cells in vitro and in vivo. FIG. 15a. MyD88 is required at the level of the host but not that of the APC. DC from WT mice were first loaded with antigen (OVA holoprotein with C/P adjuvant, live or oxaliplatin-treated EG7 cells) and then injected into the footpad of into WT or MyD88^−/− recipients (n=6 mice/group). Five days later, the local immune response was measured as in FIG. 2d,e. Results of one typical experiment out of three are depicted. FIG. 15b. Casp-1 and IL-1β-dependent OT-I priming in vitro. The differentiation of IFNγ producing CD8^+ OT-1 cells was induced by incubating naïve OVA-specific TCR transgenic OT-1 lymphocytes with syngeneic BM-DC (derived from WT or Casp-1^−/− mice) that were loaded with oxaliplatin-treated EG7 for 2 days in vitro. […] Exogenous addition of rIL-1β (100 ng/ml) or IL-12 (10 ng/ml) to cocultures of Casp-1^−/− DC loaded with dying tumor cells and incubated with OT1 restored T cell priming. […] FIG. 15c. Specific and direct polarizing effects of IL-1β on T lymphocytes in vitro. Purified CD3^+ CD8^+ T cells derived from naïve WT mice were stimulated with anti-CD3 and anti-CD28 mAb for 5 days in the presence of the indicated cytokines (10 ng/ml for IL-12p70, 100 ng/ml for IL-1β, IL-6 and TNFα) -and IFNγ production was measured as in FIG. 3b. FIG. 15d. […]

[7] = tested on: OT-1 CD8+ T cells; test: In vitro stimulation of OT-1 cells by BM-DC loaded with oxaliplatin-treated EG7; format: cell-based, mouse; conditions: rIL-1β 100 ng/ml or IL-12 10 ng/ml added to cocultures
Procedure: as §1

Molecule: Nc1ncnc2c1ncn2[C@@H](C=O)O[C@@H](C=O)COP(=O)(O)OP(=O)(O)OP(=O)(O)O [oxiATP, 2′,3′-dialdehyde derivative of ATP]
- efficacy of vaccination with dying tumor cells [1]: prevent the efficacy of vaccination
- T cell priming triggered by OVA protein plus adjuvant ([2]; OVA with PolyI:C+CpG in presence of oxiATP): did not affect T cell priming
- T cell priming by oxaliplatin-treated EG7 cells ([2]; cells admixed with oxiATP, footpad, C57Bl/6 mice): abolished T cell priming

Molecule: IL-1Ra: recombinant IL-1 receptor antagonist, Kineret Anakinra (Amgen)
- effect on the response of CT26 tumors to anthracyclines [3]: blunted the response
- T cell priming in vivo by oxaliplatin-treated EG7 cells (IFNγ after restimulation with OVA) ([2]; IL-1Ra co-injected into the footpad): failed to prime T cells in vivo
- cytoplasmic IFNγ staining of CD3+CD8+ T lymphocytes ([2]; IL-1Ra co-injected, restimulation with PMA-ionomycin, flow cytometry): failed to stain positively for cytoplasmic IFNγ
- tumor-specific IFNγ response of T cells primed by dying CT26 cells [4]: abolished
- effect on the response of EL4 tumors to oxaliplatin [5]: blunted the response

B1: IL-1β: recombinant mouse IL-1β from R&D Systems (protein)
chain: VPIRQLHYRLRDEQQKSLVLSDPYELKALHLNGQNINQQVIFSMSFVQGEPSNDKIPVALGLKGKNLYLSCVMKDGTPTLQLESVDPKQYPKKKMEKRFVFNKIEVKSKVEFESAEFPNWYISTSQAEHKPVFLGNNSGQDIIDFTMESVSS
- IFNγ production by naive CD3+CD8+ splenic T cells [6]: failed to produce IFNγ, unless IL-113
- T cell priming in Nalp3−/− or Casp1−/− mice ([2]; cytokine co-injected with oxaliplatin-treated EG7: rIL-1β 250 ng, rIL-12 50 ng, rIL-6 250 ng per footpad): restored deficient T cell priming
- priming capacity of Casp-1−/− DC for OT-1 cells (IFNγ) [7]: restored the priming capacity
